Experimental data published in patent US20230192720A1, “MACROCYCLIC COMPOUNDS” (ZENO MANAGEMENT, INC., priority 2019, published 2023).

Experiments:
NCI-H929 cells = assay: NCI-H929 cell proliferation assay (CellTiter-Glo); format: cell-based; details: 72 h compound treatment
Description: NCI-H929 Cell Proliferation Assay
Cell proliferation was measured using the CellTiter-Glo® Luminescent Cell Viability Assay. The assay involved the addition of a single reagent (CellTiter-Glo® Reagent) directly to cells cultured in serum-supplemented medium. NCI-H929 (ATCC CRL-9068) cells were cultured according to ATCC recommendations and were seeded at 3,000 cells per well.
Each compound evaluated was prepared as a DMSO stock solution (10 mM). Compounds were tested in duplicate on each plate, with a 10-point serial dilution curve (1:3 dilution). Compound treatment ([…]) was added from the compound dilution plate to the cell plate. The highest compound concentration was 10 μM (final), with a 0.1% final DMSO concentration. Plates were then incubated at 37° C., 5% CO2. After 72 h of compound treatment, cell plates were equilibrated at rt for approximately 30 mins. An equi-volume amount of CellTiter-Glo® Reagent (40 μL) was added to each well. Plates were mixed for 2 mins on an orbital shaker to induce cell lysis and then incubated at rt for 10 mins to stabilize the luminescent signal. Luminescence was recorded using an Envision plate reader according to CellTiter-Glo protocol. IC50 of each compound was calculated using GraphPad Prism by nonlinear regression analysis.

Mcl-1 = Mcl-1 (Homo sapiens, UniProt Q07820); assay: Mcl-1 Homogeneous Time Resolved Fluorescence (HTRF) binding assay
Sequence of Mcl-1 (Q07820 whole entry): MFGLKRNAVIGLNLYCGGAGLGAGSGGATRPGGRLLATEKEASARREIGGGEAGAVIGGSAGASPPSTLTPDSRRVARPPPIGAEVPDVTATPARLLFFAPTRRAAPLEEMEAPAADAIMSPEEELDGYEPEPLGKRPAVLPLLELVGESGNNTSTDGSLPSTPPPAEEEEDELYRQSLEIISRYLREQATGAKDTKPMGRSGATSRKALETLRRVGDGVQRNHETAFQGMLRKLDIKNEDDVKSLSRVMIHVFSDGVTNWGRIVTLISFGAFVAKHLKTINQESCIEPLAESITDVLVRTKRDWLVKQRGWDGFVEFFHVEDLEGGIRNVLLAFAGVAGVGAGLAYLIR

Row | Compound | IC50 (NCI-H929 cells; Homo sapiens, NCI-H929, 72 h) | IC50 (Mcl-1) | IC50 (NCI-H929 cells)
1 | Cn1nc2cc1CSc1cc3c(c(c1)OCCCc1c(C(=O)O)n(C)c4c(c(Cl)ccc14)-c1c(nn4c1CCCC4)CSC2)NCCC3 (single isomer, unassigned) [Example 2A, (Ra)-(+)-(Z)-1^6-chloro-1^1,6^1-dimethyl-2^4,2^5,2^6,2^7,9^1,9^2,9^3,9^4-octahydro-1^1H,6^1H-10-oxa-4,8-dithia-9(6,8)-quinolina-2(3 ,2)-pyrazolo[1,5-a]pyridina-1(7 ,3)-indola-6(3,5)-pyrazolacyclotridecaphane-1^2-carboxylic acid] | ≤ 100 nM | < 10 nM | –
2 | Cn1nc2cc1CSc1cc3c(c(c1)OCCCc1c(C(=O)O)n(C)c4c(c(Cl)ccc14)-c1c(nn4c1CCC4)CSC2)NCCC3 (single isomer, unassigned) [Example 1A, (Ra)-(+)-(Z)-1^6-Chloro-1^1,6^1-dimethyl-2^5,2^6,9^1,9^2,9^3,9^4-hexahydro-1^1H,2^4H,6^1H-10-oxa-4,8-dithia-9(6,8)-quinolina-1(7,3)-indola-2(3,2)-pyrrolo[1,2-b]pyrazola-6(3,5)-pyrazolacyclotridecaphane-1^2-carboxylic acid] | ≤ 100 nM | < 10 nM | –
3 | CCn1nc(C)c2c1CSCc1cc(n(C)n1)CSc1cc3c(c(c1)OCCCc1c(C(=O)O)n(C)c4c-2c(Cl)ccc14)NCCC3 (atropisomer, axis not shown; (Ra)) [Example 14A, (Ra)-(+)-(Z)-1^6-Chloro-2^1-ethyl-1^1,2^3,6^1-trimethyl-9^1,9^2,9^3,9^4-tetrahydro-1^1H,2^1H,6^1H-10-oxa-4,8-dithia-9(6,8)-quinolina-1(7,3)-indola-2(4,5),6(3,5)-dipyrazolacyclotridecaphane carboxylic acid] | – | – | ≤ 100 nM
4 | Cn1nc2cc1CSc1cc3c(c(c1)OCCCc1c(C(=O)O)n(C)c4c(c(F)ccc14)-c1c(nn4c1CCCC4)CSC2)NCCC3 (atropisomer, axis not shown; (Ra)) [Example 8A, (Ra)-(+)-(Z)-1^6-Fluoro-1^1,6^1-dimethyl-2^4,2^5,2^6,2^7,9^1,9^2,9^3,9^4-octahydro-1^1H,6 ^1H-10-oxa-4,8-dithia-9(6, 8)-quinolina-2(3,2)-pyrazolo[1,5-a]pyridina-1(7,3)-indola-6(3,5)-pyrazolacyclotridecaphane-1^2-carboxylic acid] | – | – | ≥ 1000 nM
5 | CN1Cc2cc(n(C)n2)CSc2cc3c(c(c2)OCCCc2c(C(=O)O)n(C)c4c(c(Cl)ccc24)-c2c(nn4c2CCCC4)C1)NCCC3 (atropisomer, axis not shown; (Sa)) [Example 4B, (Sa)-(−)-(Z)-1^6-Chloro-1^1,6^1,4-trimethyl-2^4,2^5,2^6,2^7,9^1,9^2,9^3,9^4-octahydro-1^1H,6^1H-10-oxa-8-thia-4-aza-9(6,8)-quinolina-2(3,2)-pyrazolo[1,5-a]pyridina-1(7,3)-indola-6(3,5)-pyrazolacyclotridecaphane-1^2-carboxylic acid] | – | – | ≤ 100 nM

Next, values leading:

Row | IC50 (NCI-H929 cells; Homo sapiens, NCI-H929, 72 h) | IC50 (Mcl-1) | IC50 (NCI-H929 cells) | Compound
6 | – | – | ≤ 100 nM | CN1Cc2cc(n(C)n2)CCc2cc3c(c(c2)OCCCc2c(C(=O)O)n(C)c4c(c(Cl)ccc24)-c2c(nn4c2CCC4)C1)NCCC3 (atropisomer, axis not shown; (Ra)) [Example 5A, (Ra)-(+)-(Z)-1^6-Chloro-1^1,6^1,4-trimethyl-2^5,2^6,9^1,9^2,9^3,9^4-hexahydro-1^1H,2^4H,6^1H-10-oxa-4-aza-9(6,8)-quinolina-1(7,3)-indola-2(3,2)-pyrrolo[1,2-b]pyrazola-6(3,5)-pyrazolacyclotridecaphane-1^2-carboxylic acid]
7 | – | – | ≥ 1000 nM | CN1Cc2cc(n(C)n2)CCc2cc3c(c(c2)OCCCc2c(C(=O)O)n(C)c4c(c(Cl)ccc24)-c2c(nn4c2CCC4)C1)NCCC3 (atropisomer, axis not shown; (Sa)) [Example 5B, (Sa)-(−)-(Z)-1^6-Chloro-1^1,6^1,4-trimethyl-2^5,2^6,9^1,9^2,9^3,9^4-hexahydro-1^1H,2^4H,6^1H-10-oxa-4-aza-9(6,8)-quinolina-1(7,3)-indola-2(3,2)-pyrrolo[1,2-b]pyrazola-6(3,5)-pyrazolacyclotridecaphane-1^2-carboxylic acid]
8 | – | – | ≥ 1000 nM | CN1Cc2cc(n(C)n2)CCc2cc3c(c(c2)OCCCc2c(C(=O)O)n(C)c4c(c(Cl)ccc24)-c2c(nn4c2CCCC4)C1)NCCC3 (atropisomer, axis not shown; (Sa)) [Example 6B, (Sa)-(−)-(Z)-1^6-Chloro-1^1,6^1,4-trimethyl-2^4,2^5,2^6,2^7,9^1,9^2,9^3,9^4-octahydro-1^1H,6^1H-10-oxa-4-aza-9(6,8)-quinolina-2(3,2)-pyrazolo[1,5-a]pyridina-1(7,3)-indola-6(3,5)-pyrazolacyclotridecaphane-1^2-carboxylic acid]
9 | – | – | ≤ 100 nM | CN1Cc2cc(n(C)n2)CCc2cc3c(c(c2)OCCCc2c(C(=O)O)n(C)c4c(c(Cl)ccc24)-c2c(nn4c2CCCC4)C1)NCCC3 (atropisomer, axis not shown; (Ra)) [Example 6A, (Ra)-(+)-(Z)-1^6-Chloro-1^1,6^1,4-trimethyl-2^4,2^5,2^6,2^7,9^1,9^2,9^3,9^4-octahydro-1^1H,6^1H-10-oxa-4-aza-9(6,8)-quinolina-2(3,2)-pyrazolo[1,5-a]pyridina-1(7,3)-indola-6(3,5)-pyrazolacyclotridecaphane-1^2-carboxylic acid]
